From publication PMC11905336, “Pyrrole‐Tethered Bisbenzoxazole Derivatives: Apoptosis‐Inducing Agents Targeting Breast Cancer Cells” (Chemical Biology & Drug Design, 2025)
Like-named read-outs stand apart in the source and are kept apart here.

Columns and labels:
[1] = test system: HeLa and HepG2 cell lines; set-up: method as in Srivastava et al. [2015]; conditions: ref Srivastava et al. [2015]; cited from earlier work
MCF‐7 = test system: MCF‐7; set-up: method as in Desai et al. [2020]; conditions: ref Desai et al. [2020]; cited from earlier work
MDA‐MB‐231 = test system: MDA‐MB‐231; set-up: method as in Desai et al. [2020]; conditions: ref Desai et al. [2020]; cited from earlier work
HDFa cell lines = assay: Cytotoxicity on healthy dermal fibroblasts (MTT / xCELLigence real-time cell analysis); type: cell-based; conditions: Homo sapiens
Protocol: The cytotoxicity of these derivatives was also assessed in dermal fibroblast cells using xCELLigence analysis as detailed in the Supporting Information.
(§1) The human dermal fibroblast (HDFa) and human breast cancer cells (MCF‐7) were obtained from the American Type Culture Collection (ATCC; Manassas, VA, USA). Cells were cultured in RPMI medium (MCF‐7) and DMEM medium (HDFa) was supplemented with 10% FBS, 1% penicillin–streptomycin, 1% amphotericin, and 2.5% L‐glutamine at 37°C in a 5% CO2 incubator.
xCELLigence Real‐Time Cell Analysis. The xCELLigence system (Real‐Time Cell Analyzer (RTCA) Dual Plate (DP) (Roche Diagnostics GmbH, Penzberg)) was used for real‐time monitoring of cell viability without the need for labeling. A total of 1 × 10^4 HDFa cells were seeded into each well of the E‐plate, and the cell proliferation curve was monitored for 24 h. […] The Cell Index (CI) value was automatically measured every hour for each well using RTCA Software (version 1.2.1) (Yetkin et al. [2021]; Yıldırım et al. [2022]).

MCF‐7 cells [2] = assay: Cell cycle phases by flow cytometry with propidium iodide, MCF-7; type: cell-based, human; conditions: for Change of G2 phase averages vs control: MCF-7, 48 h at IC50; for Change of G1 phase vs control / Change of S phase vs control: MCF-7, 48 h at IC50, p < 0.05
Protocol: In the flow cytometry analysis, cell cycle kits facilitated the removal of cytoskeletal and nuclear proteins by disrupting lipid components of the cell membrane using detergents. […] Consequently, we were able to identify abnormal DNA distributions and cell cycle phase profiles in the MCF‐7 breast cancer cell line.
MCF‐7 cells were seeded in a 6‐well plate at a density of 1 × 10^6 cells and incubated for 24 h. […] MCF‐7 cells were then trypsinized, stained, and analyzed using a BD FACSAria III flow cytometer (BD Biosciences, Bedford, MA, USA) with FACS Diva Software and ModFit LT.
The cell cycle kit (MCE USA‐HY‐K1071‐50 T) works on the principle of dissolving the lipids in the cell membrane with the help of detergents. This kit was used to identify cells with abnormal DNA and cell cycle phase distributions in a breast cancer cell line. It was analyzed by removing the cytoskeleton and nuclear proteins with the help of trypsin and digesting the cellular RNA by enzymes. Cells were seeded at 1 × 10^6 in a 6‐well plate and incubated for 24 h. […] Cells were removed by adding trypsin to adherent cells. They were centrifuged at 1000 g for 3–5 min at 4°C, and then the supernatant was discarded. One milliliter of prechilled PBS was added to resuspend the cells, centrifuged at 1000 g for 3–5 min at 4°C, and detected via BD FACSAria III flow cytometer (BD Biosciences, Bedford, MA, USA). Percentage data were obtained using FACS Diva Software and ModFit LT (Şimşek et al. [2020]).

MCF‐7 cells [3] = assay: Apoptosis/necrosis by flow cytometry, Annexin V/propidium iodide, MCF-7; type: cell-based, human; conditions: MCF-7, 48 h, p < 0.05
Protocol: Flow cytometry analysis was performed to evaluate the percentages of apoptosis for these compounds compared to tamoxifen. MCF‐7 cell suspensions treated with each compound for 48 h were stained using an apoptosis detection kit and subsequently analyzed using flow cytometry.
(§2) The assessment of apoptosis through flow cytometry is a valuable method for obtaining quantitative results to determine the levels of apoptosis and necrosis in cells. In our study, the 48th‐hour apoptosis levels of three synthases with the lowest IC50 values (PTB derivatives B8, B14, and B18) were evaluated. To assess apoptosis levels, MCF‐7 cells and healthy fibroblast cells were incubated with these synthases for 48 h. After this incubation period, the cells were treated with Annexin‐V APC and PE propidium iodide (PI) dyes to examine apoptosis levels. Then, to examine the levels of apoptosis, the cells were incubated at a concentration of 2 × 10^5 cells/mL with 5 μL Annexin‐V APC and 10 μL PI dyes in 100 μL Binding buffer for 15 min at room temperature. Samples were then washed twice in PBS, and the BD FACS ARIA III flow cytometry device was used to determine the percentage of apoptotic cells. (Ayaz et al. [2022]).

MCF‐7 cell lines = assay: MTT assay, cytotoxicity on MCF-7 cells; type: cell-based, human; conditions: for IC50: Homo sapiens, MTT; for IC50 in MCF-7 compared to tamoxifen (fold lower): MCF-7, MTT
Protocol: The cytotoxic effects of PTB derivatives on MCF‐7 breast cancer cells were evaluated using the MTT assay at various concentrations (100 nM, 1 μM, 10 μM, 50 μM, and 100 μM).
as §1
MTT Method. The MTT method is used to detect and quantify living organisms cultured with the method colorimetrically. This method relies on intact mitochondria cleaving the tetrazolium ring of the MTT dye. The MTT substance is absorbed and reduced to a colorful, water‐insoluble formazan by a mitochondria‐dependent reaction. Cell viability is measured based on the MTT reduction property, and the density of dye obtained from MTT analysis indicates the number of viable cells. In this study, cell viability was assessed using the MTT (0.5 mg/mL) solution that was added to each well. […] After adding properties to cultures, they were kept at 37°C for 24 h and overnight. Then, at 48 and 72 h after applying the molecules, 10 μL of MTT was added to each well and incubated under similar conditions for 4 h. Absorbance spectrophotometry was performed at a wavelength of 570 nm using the IC50 = [(control absorbents‐sample absorbents)/control absorbents] × 100 calculation method (Khorsandi et al. [2017]).

HDFa cells = assay: Apoptosis/necrosis by flow cytometry, Annexin V/propidium iodide, HDFa; type: cell-based, human; conditions: 48 h, same concentrations as in MCF-7, p < 0.05
Protocol: Subsequently, flow cytometry analysis was conducted on HDFa cells.
as §2

MCF‐7 cell line = test system: MCF‐7 cell line; set-up: method as in earlier work; conditions: MCF-7, XTT assay, ref Kuzu, Hepokur, Alagoz, et al. [2022], Turkmenoglu; cited from earlier work
Vero healthy cell line = test system: Vero healthy cell line; set-up: method as in Ersan et al. [2020]; conditions: ref Ersan et al. [2020]; cited from earlier work
[4] = test system: A549, A498, HeLa, and HepG2; set-up: method as in Ersan et al. [2020]; conditions: ref Ersan et al. [2020], cited from earlier work
[5] = test system: A549 and MCF‐7 cell lines; set-up: method as in Belal and Abdelgawad [2017]; conditions: ref Belal and Abdelgawad [2017]; cited from earlier work
MCF‐7 cells [6] = test system: MCF‐7 cells; set-up: method as in earlier work; conditions: MCF-7, cell cycle analysis, ref Kuzu, Hepokur, Alagoz, et al. [2022], Turkmenoglu; cited from earlier work
[7] = 24 h, values greater than 100 not calculated, read-out: IC50 (μM) for HDFa cell lines, 24 h
[8] = 72 h, values greater than 100 not calculated, read-out: IC50 (μM) for HDFa cell lines, 72 h
[9] = read-out: IC50 (μM) for HDFa cell lines, 48 h, values greater than 100 not calculated
[10] = MCF7, read-out: IC50 (μM) for MCF‐7 cell lines, 48 h
[11] = MCF7, 24 h, read-out: IC50 (μM) for MCF‐7 cell lines, 24 h
[12] = MCF7, 72 h, read-out: IC50 (μM) for MCF‐7 cell lines, 72 h

SMILES	IC50 (HDFa cell lines; [7]) [µM]	IC50 (HDFa cell lines; [8]) [µM]	IC50 (HDFa cell lines; [9]) [µM]	IC50 (MCF‐7 cell lines; [10]) [µM]	IC50 (MCF‐7 cell lines; [11]) [µM]	IC50 (MCF‐7 cell lines; [12]) [µM]	also measured
c1ccc(Cn2nnc(-c3ccccc3)c2-c2nc3ccccc3o2)cc1 [Compound 10]							IC50 [1]: 5 to 30 µg/mL
c1ccc2nc(-c3nc4ccccc4o3)cnc2c1 [Compound 12]							IC50 (MCF‐7): 0.53 µM; IC50 (MDA‐MB‐231): 0.5 µM
COC(=O)c1ccc2nc(-c3ccc(-c4nc5cc(C)ccc5o4)[nH]3)oc2c1 [Compound B14, Methyl 2‐(5‐(5‐Methylbenzo[d]Oxazol‐2‐Yl)‐1H‐Pyrrol‐2‐Yl)benzo[d]Oxazole‐6‐Carboxylate]	94.5 ± 1.37	97.4 ± 2.83	96.3 ± 1.38	0.95 ± 1.01	3.28 ± 0.74	3.02 ± 2.18	Change of G2 phase averages vs control (MCF‐7 cells [2]): No significant changes; Change of G1 phase vs control (MCF‐7 cells [2]): significant increase; Change of S phase vs control (MCF‐7 cells [2]): corresponding decrease; Necrosis percentage vs control (MCF‐7 cells [3]): significant changes in all groups except for the B14 group; IC50 in MCF-7 compared to tamoxifen (fold lower) (MCF‐7 cell lines): approximately 8 fold
CC/C(=C(\c1ccccc1)c1ccc(OCCN(C)C)cc1)c1ccccc1 [Tamoxifen, reference compound]							Change of G2 phase averages vs control (MCF‐7 cells [2]): No significant changes; Change of G1 phase vs control (MCF‐7 cells [2]): significant increase; Change of S phase vs control (MCF‐7 cells [2]): corresponding decrease; Secondary apoptosis vs control (MCF‐7 cells [3]): significantly elevated; Average number of viable cells vs control (HDFa cells): significant decrease; Percentage of necrosis vs control (HDFa cells): notable increase
O=c1[nH]cc(F)c(=O)[nH]1 [5‐FU, 5‐fluorouracil]							IC50 (MCF‐7 cell line): 5.06 µM
COc1ccc2oc(-c3ccc(-c4nc5ccccc5o4)[nH]3)nc2c1 [Compound B8, 2‐(5‐(Benzo[d]Oxazol‐2‐Yl)‐1H‐Pyrrol‐2‐Yl)‐5‐Methoxybenzo[d]Oxazole]	≥ 100	≥ 100	≥ 100	1.89 ± 0.12	4.4 ± 0.79	3.09 ± 0.21	Secondary apoptosis vs control (MCF‐7 cells [3]): significantly elevated; IC50 in MCF-7 compared to tamoxifen (fold lower) (MCF‐7 cell lines): approximately 8 fold
c1ccc2oc(CNCc3nc4ccccc4o3)nc2c1 [Compound 16]							Cytotoxicity against Vero healthy cell line (Vero healthy cell line): minimal cytotoxicity; IC50 ([4]; range across A549, A498, HeLa, HepG2): 0.56 to 2.24 µM; Selectivity for A549 lung cancer cell line compared to other tested cancer cell lines [4]: fourfold higher selectivity
c1ccc(-c2cc(-c3nc4ccccc4o3)[nH]n2)cc1 [Compound 11]							IC50 [5]: 0.12 to 0.19 µM
COc1ccc2oc(C(=O)N3CCCCC3)nc2c1 [Compound 14]							G0/G1 phase arrest (MCF‐7 cells [6]): 71.2%
COC(=O)c1ccc2nc(-c3ccc(-c4nc5cc(OC)ccc5o4)[nH]3)oc2c1 [Compound B18, Methyl 2‐(5‐(5‐Methoxybenzo[d]Oxazol‐2‐Yl)‐1H‐Pyrrol‐2‐Yl)benzo[d]Oxazole‐6‐Carboxylate]	98.3 ± 1.58	≥ 100	≥ 100	1.3 ± 0.98	3.53 ± 1.35	2.69 ± 0.73	Change of G2 phase averages vs control (MCF‐7 cells [2]): No significant changes; Change of G1 phase vs control (MCF‐7 cells [2]): significant increase; Change of S phase vs control (MCF‐7 cells [2]): corresponding decrease; Secondary apoptosis vs control (MCF‐7 cells [3]): significantly elevated; Average number of viable cells vs control (HDFa cells): significant decrease; Percentage of necrosis vs control (HDFa cells): notable increase; IC50 in MCF-7 compared to tamoxifen (fold lower) (MCF‐7 cell lines): approximately 8 fold
COC(=O)c1ccc2nc(-c3ccc(-c4nc5ccccc5o4)[nH]3)oc2c1 [Compound B10, Methyl 2‐(5‐(Benzo[d]Oxazol‐2‐Yl)‐1H‐Pyrrol‐2‐Yl)benzo[d]Oxazole‐6‐Carboxylate]	97.2 ± 1.76	99.9 ± 1.65	99.3 ± 1.34	2.88 ± 0.45	3.66 ± 1.34	2.44 ± 2.11	
Cc1ccc2nc(-c3ccc(-c4nc5ccc(C)cc5o4)[nH]3)oc2c1 [Compound B3, 2,5‐Bis(6‐Methylbenzo[d]Oxazol‐2‐Yl)‐1H‐Pyrrole]	≥ 100	≥ 100	≥ 100	4.38 ± 0.98	3.3 ± 1.96	3.53 ± 0.65	
Cc1ccc2oc(-c3ccc(-c4nc5ccccc5o4)[nH]3)nc2c1 [Compound B6, 2‐(5‐(Benzo[d]Oxazol‐2‐Yl)‐1H‐Pyrrol‐2‐Yl)‐5‐Methylbenzo[d]Oxazole]	98.5 ± 1.02	99.1 ± 1.73	99 ± 1.76	3.09 ± 1.23	2.81 ± 0.76	3.02 ± 0.89	
Cc1ccc2nc(-c3ccc(-c4nc5ccccc5o4)[nH]3)oc2c1 [Compound B7, 2‐(5‐(Benzo[d]Oxazol‐2‐Yl)‐1H‐Pyrrol‐2‐Yl)‐6‐Methylbenzo[d]Oxazole]	97.3 ± 1.06	100 ± 1.03	98.5 ± 2	4.68 ± 0.98	4.08 ± 1.23	2.53 ± 1.82	
COC(=O)c1ccc2nc(-c3ccc(-c4nc5ccc(C)cc5o4)[nH]3)oc2c1 [Compound B16, Methyl 2‐(5‐(6‐Methylbenzo[d]Oxazol‐2‐Yl)‐1H‐Pyrrol‐2‐Yl)benzo[d]Oxazole‐6‐Carboxylate]	95.3 ± 1.03	99.3 ± 1.07	97.3 ± 1.09	2.82 ± 2.14	3.03 ± 1.35	2.93 ± 1.02	
